Where two headings read alike, the source gives them in different places.
Legend:
[1] = tested on: MTB; conditions: cited from earlier work
[2] = tested on: MTB H37Rv lacking Rv0880; format: cell-based, Mycobacterium tuberculosis
[3] = tested on: Rv2323c'::GFP strain (Rv0324-responsive promoter); format: cell-based, Mycobacterium tuberculosis; conditions: in the presence of BDQ, FIG. 2
[4] = tested on: MTB H37Rv wildtype; format: cell-based, Mycobacterium tuberculosis
[5] = target: mycobacterial F1Fo ATP synthase (Mycobacterium tuberculosis, UniProt P9WPS1+P9WPV7); conditions: cited from earlier work
[6] = tested on: MTB H37Rv lacking Rv0324; format: cell-based, Mycobacterium tuberculosis
[7] = tested on: MTB; format: cell-based, Mycobacterium tuberculosis

Which MTB killing ([1]; after 96 hours) does the source give for `COc1nc2ccc(Br)cc2cc1[C@@H](c1ccccc1)[C@@](O)(CCN(C)C)c1cccc2ccccc12` [bedaquiline] here?
The MTB killing was “effective MTB killing occurs”.

And the bactericidal activity ([1]; during the first 4-6 days)?
The bactericidal activity was “almost no bactericidal activity”.

And the bactericidal activity ([1]; first 96 hours after BDQ treatment, even at 30 times the MIC)?
Its bactericidal activity is “little bactericidal activity”.

What about the “greater survival deficiency compared to the wildtype” value [2] of the same compound?
The value was 1.3 -fold log10.

What about the “overall growth over seven days of treatment” value [2] of the same compound?
The value was “negative overall growth”.

What about the “GFP fluorescence of the reporter strain” value [3] of the same compound?
The value was “high level of fluorescence”.

And the “overall growth rate over seven days of treatment” value [4]?
The value was “positive growth rate”.

And the “selectivity for mycobacterial F1Fo ATP synthase” value [5]?
The value was “high selectivity”.

What about the “greater survival deficiency compared to the wildtype” value [6] of the same compound?
The value was 1.8 log10.

And the “overall growth over seven days of treatment” value [6]?
The value was “negative overall growth”.

And the “decrease in Rv0880 expression” value [7]?
The value was > 2.0 absolute log2 fold-change.

And the “genes significantly differentially expressed compared to untreated samples” value [7]?
The value was 1,121 genes.

What about the “increase in Rv0324 expression upon bedaquiline treatment” value [7] of the same compound?
Its value is > 1.5 absolute log2 fold-change.

What about the “downregulated genes among the differentially expressed genes” value ([7]; 15 μM BDQ, 48 and 96 hours combined) of the same compound?
The value was 897 genes.

Source: patent publication US10472687B2, “Methods to identify antituberculosis compounds” (priority 2016, dated 2019)
